{"source": "patent US20190015383A1", "about": "“CANNABINOID COMPOSITIONS AND METHODS OF PREPARATION THEREOF” (5071, Inc., priority 2017, published 2019)", "experiment": "Water solubility testing (solubility time in water)", "format": "physicochemical", "details": "10 mg sample in 240 mL water, magnetic stirring", "protocol": "Water solubility testing was performed for Compositions C, D1, D2, and E described in Examples 3, 4, and 6. Each composition was tested at temperatures of 22° C. (tap water) and 10° C. (iced tap water). For each test, 240 mL of water at the target temperature (22° C. or 10° C.) was added to a beaker and a magnetic stirrer used with medium agitation, creating a slight vortex. A 10 mg sample of the composition to be tested was added over a 1-2 second time period and allowed to mix. The time in seconds until no particulates were visually discernable (either suspended in solution or settled out) was recorded as the solubility time. The solubility of table sugar (i.e., granulated sucrose) was also tested according to the same procedure for comparison.\nThe following categories were used to assess solubility characteristics: <30 sec=excellent to good solubility, 1-3 min=fair solubility, 3-5 min=poor solubility, and >5 min=insoluble.", "data": [{"smiles": "OC[C@H]1O[C@@](CO)(O[C@H]2O[C@H](CO)[C@@H](O)[C@H](O)[C@H]2O)[C@@H](O)[C@@H]1O", "note": "[Table sugar, sucrose]", "values": [{"measurement": "Solubility time", "setting": "10° C. (iced tap water)", "value": "<60", "unit": "s"}, {"measurement": "Solubility time", "setting": "22° C. (tap water)", "value": 22, "unit": "s"}]}]}
